# Tested on: not given
# Test: not given
# Conditions: metabolite of aniracetam; cited from earlier work
row,Compound,aniracetam-like effects
1,COc1ccc(C(=O)NCCCC(=O)O)cc1 [anisoyl-GABA],no aniracetam-like effects

# Tested on: AMPA receptors
# Test: In vitro physiological testing: field EPSPs in rat hippocampal slices (CA1)
# Type: cell-based, rat (Sprague-Dawley)
# Conditions: Chiralcel OD, hexane/10% isopropanol; in vitro hippocampal slice
# Experimental: In Vitro Physiological Testing
# The physiological effects of the compounds of this invention were determined in vitro with slices of rat hippocampus by measuring excitatory responses (field EPSPs) in hippocampal slices maintained in a recording chamber continuously perfused with artificial cerebrospinal fluid (ACSF). During a 15-30 minute interval, the perfusion medium was switched to one containing various concentrations of the test compounds. Responses collected immediately before and at the end of drug perfusion were superimposed in order to calculate both the percent increase in EPSP amplitude and percent increase in the width of the response at one-half the peak height (half-width).
# To conduct these tests, the hippocampus was removed from anesthetized, 2 month old Sprague-Dawley rats, and in vitro slices (400 micrometers thick) were prepared and maintained in an interface chamber at 35° C. using conventional techniques. this is the procedure used by Dunwiddie and Lynch, J. Physiol. […] A bipolar nichrome stimulating electrode was positioned in the dendritic layer (stratum radiatum) of the hippocampal subfield CA1 close to the border of subfield CA3.
# Current pulses (0.1 msec) through the stimulating electrode activated a population of the Schaffer-commissural (SC) fibers which arise from neurons in the subdivision CA3 and terminate in synapses on the dendrites of CA1 neurons. Activation of these synapses causes them to release the transmitter glutamate. Glutamate binds to the post-synaptic AMPA receptors which then transiently open an associated ion channel and permit a sodium current to enter the postsynaptic cell. This current results in a voltage in the extracellular space (the field excitatory post-synaptic potential or field "EPSP") which is recorded by a high impedance recording electrode positioned in the middle of the stratum radiatum of CA1.
# For the experiments summarized in the table below, the intensity of the stimulation current was adjusted to produce half-maximal EPSPs (typically about 1.5-2.0 mV). Paired stimulation pulses were given every 40 seconds with an interpulse interval of 200 msec. The field EPSPs of the second response were digitized and analyzed to determine amplitude, half-width, and response area. If the responses were stable for 15-30 minutes (baseline), test compounds were added to the perfusion lines for a period of about 15 minutes. The perfusion was then changed back to regular ACSF.
# Paired-pulse stimulation was used since stimulation of the SC fibers in part activates interneurons which generate an inhibitory postsynaptic potential (IPSP) in the pyramidal cells of CA1. This feed-forward IPSP typically sets in after the EPSP reaches its peak. The feed-forward IPSP accelerates the repolarization and shortens the decay phase of the EPSP, and thus could partially mask the effects of the test compounds. One of the relevant features of the feed-forward IPSP is that it cannot be reactivated for several hundred milliseconds following a stimulation pulse. This phenomenon can be employed to advantage to eliminate IPSP by delivering paired pulses separated by 200 milliseconds and using the second ("primed") response for data analysis.
# The compounds of the invention were assayed in the physiological test system described above for the generation of data presented in the table below. […] Values have been estimated by interpolation in most cases, but by extrapolation from determined values for others.
row,Compound,activity of first eluting enantiomer relative to second eluting enantiomer (effect on EPSP)
1,"O=C1c2cc3c(cc2OC2CCCN12)OCO3 (single isomer, unassigned) [first eluting enantiomer]",at least 10 -fold

# Same assay, conditions: figure: +50% half-width, vs. substituted benzoyl piperidine rotomers
row,in vitro enhancement by rotational restriction vs. corresponding rotomer,Compound
1,marked enhancement,"O=C1c2cc3nccnc3cc2OC2CCCN12 (racemic) [Compound VI, (R,S)-Pyrazino[2,3-g]-2,3-dihydro-1H-pyrrolo[2,1-b][1,3]benzoxazine-11(3aH)-one]"
2,marked enhancement,"O=C1c2cc3c(cc2OC2CCCN12)OCO3 (racemic) [Compound I, (R,S)-1,3-Dioxolo[4,5-g]-2,3-dihydro-1H-pyrrolo[2,1-b][1,3]benzoxazine-10(3aH)-one]"

row,Compound,in vitro enhancement by rotational restriction vs. corresponding rotomer
1,"O=C1c2cc3c(cc2OC2CCCN12)OCCO3 (racemic) [Compound III, (R,S)-1,4-Dioxan[2,3-g]-2,3-dihydro-1H-pyrrolo[2,1-b][1,3]benzoxazine-11(3aH)-one]",marked enhancement

# Same assay, conditions: rat hippocampal slice, 35° C., about 15 min perfusion; estimated by interpolation in most cases, extrapolation for others
Compound,+25% Amplitude (estimated concentration required to increase the amplitude of the EPSP to 25% above baseline) [mM],+50% Half-Width (estimated concentration required to increase the width of the EPSP at half-height by 50%) [mM]
"O=C1c2cc3nccnc3cc2OC2CCCN12 (racemic) [Compound VI, (R,S)-Pyrazino[2,3-g]-2,3-dihydro-1H-pyrrolo[2,1-b][1,3]benzoxazine-11(3aH)-one]",0.1,0.1
"O=C1c2cc3c(cc2OC2CCCN12)OCCO3 (racemic) [Compound III, (R,S)-1,4-Dioxan[2,3-g]-2,3-dihydro-1H-pyrrolo[2,1-b][1,3]benzoxazine-11(3aH)-one]",> 0.03,0.02
"COc1ccc2c(c1)C(=O)N1CCCC1O2 (racemic) [Compound V, (R,S)-7-Methoxy-2,3-dihydro-1H-pyrrolo[2,1-b][1,3]benzoxazine-9(3aH)-one]",1,0.25
"O=C1c2cc3c(cc2OC2CCCN12)OCO3 (racemic) [Compound I, (R,S)-1,3-Dioxolo[4,5-g]-2,3-dihydro-1H-pyrrolo[2,1-b][1,3]benzoxazine-10(3aH)-one]",0.1,0.05
"O=C1c2cc3nccnc3cc2OC2CCCCN12 (racemic) [Compound VII, (R,S)-Pyrazino[2,3-g]-1,2,3,4-tetrahydropyrido[2,1-b] [1,3] benzoxazine-12(4aH)-one]",0.4,0.3
"COc1ccc2c(c1)C(=O)N1CCCC1(C)O2 (racemic) [Compound VIII, (R,S)-7-Methoxy-3a-methyl-2,3-dihydro-1H-pyrrolo[2,1-b][1,3]benzoxazine-9-one]",> 0.3,0.4
"O=C1c2cc3c(cc2OC2CCCCN12)OCO3 (racemic) [Compound II, (R,S)-1,3-Dioxolo[4,5-g]-1,2,3,4-tetrahydropyrido[2,1-b][1,3]benzoxazine-11(4aH)-one]",0.3,0.2
"COc1ccc2c(c1)OC1CCCN1C2=O (racemic) [Compound IV, (R,S)-6-Methoxy-2,3-dihydro-1H-pyrrolo[2,1-b][1,3]benzoxazine-9(3aH)-one]",> 1,0.4

# Tested on: AMPA receptor
# Test: In vitro hippocampal patch preparation, effect on AMPA receptor function
# Type: cell-based
# Conditions: Chiralpak AD, hexane/50% isopropanol
# Experimental: This isomer was determined to be the (+)-enantiomer.
row,Compound,activity of second eluting enantiomer relative to first eluting enantiomer (effect on AMPA receptor function)
1,"O=C1c2cc3c(cc2OC2CCCN12)OCCO3 (single isomer, unassigned) [second eluting enantiomer]",at least 10 -fold

# Tested on: not listed separately
# Test: Enhancing memory in rats, 8-arm radial maze learning paradigm
# Type: in vivo, rat
# Conditions: not given
row,Compound,potency in the behavioral task vs. corresponding rotomer and other ampakines of WO 94/02475
1,"O=C1c2cc3c(cc2OC2CCCN12)OCCO3 (racemic) [Compound III, (R,S)-1,4-Dioxan[2,3-g]-2,3-dihydro-1H-pyrrolo[2,1-b][1,3]benzoxazine-11(3aH)-one]",ten times more potent

# Same assay, conditions: Rattus norvegicus, rats, read-out: Behavioral Dose (threshold dose for enhancing memory)
row,Compound,minimal effective dose [mg/kg]
1,"O=C1c2cc3nccnc3cc2OC2CCCN12 (racemic) [Compound VI, (R,S)-Pyrazino[2,3-g]-2,3-dihydro-1H-pyrrolo[2,1-b][1,3]benzoxazine-11(3aH)-one]",2
2,"O=C1c2cc3c(cc2OC2CCCN12)OCCO3 (racemic) [Compound III, (R,S)-1,4-Dioxan[2,3-g]-2,3-dihydro-1H-pyrrolo[2,1-b][1,3]benzoxazine-11(3aH)-one]",0.1
3,"O=C1c2cc3c(cc2OC2CCCN12)OCO3 (racemic) [Compound I, (R,S)-1,3-Dioxolo[4,5-g]-2,3-dihydro-1H-pyrrolo[2,1-b][1,3]benzoxazine-10(3aH)-one]",1

# Same assay, conditions: figure: threshold dose
row,Compound,in vivo enhancement by rotational restriction vs. corresponding rotomer
1,"O=C1c2cc3nccnc3cc2OC2CCCN12 (racemic) [Compound VI, (R,S)-Pyrazino[2,3-g]-2,3-dihydro-1H-pyrrolo[2,1-b][1,3]benzoxazine-11(3aH)-one]",marked enhancement
2,"O=C1c2cc3c(cc2OC2CCCN12)OCCO3 (racemic) [Compound III, (R,S)-1,4-Dioxan[2,3-g]-2,3-dihydro-1H-pyrrolo[2,1-b][1,3]benzoxazine-11(3aH)-one]",marked enhancement
3,"O=C1c2cc3c(cc2OC2CCCN12)OCO3 (racemic) [Compound I, (R,S)-1,3-Dioxolo[4,5-g]-2,3-dihydro-1H-pyrrolo[2,1-b][1,3]benzoxazine-10(3aH)-one]",marked enhancement

# Reference: patent publication US5962447A, “Benzoxazines for enhancing synaptic response” (The Regents of the University of California, priority 1998, dated 1999)
